The source of these data is US12636385B2, “Selective ligands for tau aggregates” (Sentonix, Inc., priority 2018, dated 2026).

One assay deals with T1, 0N4R Tau fibrils (Homo sapiens, UniProt P10636).
T1 construct: made in house
The assay is described as follows: ^3H-THK5117 competition binding to tau fibrils in vitro. The conditions noted are these: for IC50: 3 nM [^3H]-THK5117, recombinant 0N4R tau fibrils, average if run more than once; for Selectivity for tau relative to Aβ: calculated from [^3H]-THK5117 tau and [^3H]-AZD2184 Aβ assays. As to the method:
Preparation of recombinant 0N4R Tau fibrils was performed as previously described in Morozova, O. A., Biochemistry (2013), Vol., 52(40), pages 6960-6967. Competition binding experiments to 0N4R Tau fibrils were performed by incubating increasing concentrations [10^−10-10^−6 M] of the Example compounds of the invention, or the known tau specific ligand PBB3 (PBB3 was synthesized as previously described in M. Maruyama, et al, Neuron 2013, 79, 1094-1108) or MK6240 (Novandi Chemistry AB), in the presence of 3 nM of the known tau ligand [^3H]-THK5117 (Novandi Chemistry) and 0.2 mM 0N4R tau fibrils in binding buffer (50 mM Tris-HCl, pH 7.4, 0.1% BSA) for 1 h in the dark, and at 22° C. The incubation was terminated by filtration through a Whatman GF/B glass filter (Whatman International, Kent, UK) using a Brandel cell harvester. The filter was then washed rapidly four times with 3 mL of ice-cold wash buffer (5 mM Tris-HCl, 0.25 mM NaCl, 5% EtOH), and equilibrated for 1 h in scintillation vials containing 5 mL of Ultima Gold scintillation fluid before being analysed using a Liquid Scintillation Analyzer.
The results are shown in Table 2 in the column labeled “Tau IC50”.
Relative selectivity for tau compared to Aβ for the exemplified compounds was calculated using the results for the [^3H]-THK5117 tau and [^3H]-AZD2184 Aβ assays described above. The calculated results are shown in Table 2 in the column labeled “Selectivity for tau relative to Aβ”.

The target in a further assay is T2, Aβ(1-42) amyloid fibrils (Homo sapiens, UniProt P05067).
T2 construct: Aβ(1-42) amyloid fibrils
T2 sequence (P05067 672-713): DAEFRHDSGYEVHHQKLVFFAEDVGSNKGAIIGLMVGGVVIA
The assay is described as follows: ^3H-AZD2184 competition binding to Aβ(1-42) fibrils in vitro. The following applies: [^3H]-AZD2184, Aβ(1-42) amyloid fibrils; average if run more than once. On the procedure: Competition binding experiments to Aβ(1-42) amyloid fibrils were performed as previously described in Jureus, A., et al, Journal of Neurochemistry (2010), Vol. 114, pages 784-794 for the Example compounds of the invention indicated in Table 2, or the known tau specific ligand PBB3 (PBB3 was synthesized as previously described in M. Maruyama, et al, Neuron 2013, 79, 1094-1108).
The results are shown in Table 2 in the column labeled “Aβ IC50”.

By IC50 is commonly meant the point on the concentration scale where inhibition reaches its midpoint.

The structures appear in SMILES notation.

T1 sequence (P10636 1-383 isoform P10636-6): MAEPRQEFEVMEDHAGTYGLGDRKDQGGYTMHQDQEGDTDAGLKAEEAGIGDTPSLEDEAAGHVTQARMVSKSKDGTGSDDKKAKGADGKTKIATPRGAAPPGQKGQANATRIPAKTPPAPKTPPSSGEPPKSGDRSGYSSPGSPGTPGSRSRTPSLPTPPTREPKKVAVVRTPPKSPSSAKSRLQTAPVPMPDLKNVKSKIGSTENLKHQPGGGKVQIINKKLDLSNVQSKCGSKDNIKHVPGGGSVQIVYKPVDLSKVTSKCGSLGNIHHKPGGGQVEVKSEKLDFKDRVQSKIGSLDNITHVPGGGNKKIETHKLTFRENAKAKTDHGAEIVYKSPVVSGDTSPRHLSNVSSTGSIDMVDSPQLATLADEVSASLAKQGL

Regarding `OCC1CCN(c2ccc(-c3nc4ccccc4s3)cn2)CC1` [Compound 1], at 0N4R Tau fibrils, the IC50 is 19 nM.
In the case of `FCC1CCN(c2ccc(-c3nc4ccccc4s3)cn2)CC1` [Compound 2], at 0N4R Tau fibrils, the IC50 came to 7 nM.
In the case of `FCCCCOCC1CCN(c2ccc(-c3nc4ccccc4s3)cn2)CC1` [Compound 3], at 0N4R Tau fibrils, the IC50 was 11 nM and the “Selectivity for tau relative to Aβ” value is on record as 3.9. In addition, at Aβ(1-42) amyloid fibrils, the concentration for half-maximal inhibition (IC50) was 43 nM.
For the compound `OC1CCN(c2ccc(-c3nc4ccccc4s3)cn2)CC1` [Compound 4], the IC50 on 0N4R Tau fibrils is 43 nM.
In the case of `FCCCCOC1CCN(c2ccc(-c3nc4ccccc4s3)cn2)CC1` [Compound 5], at 0N4R Tau fibrils, the IC50 amounted to 5 nM and the “Selectivity for tau relative to Aβ” value is 4.8. Besides, the concentration for half-maximal inhibition (IC50) at Aβ(1-42) amyloid fibrils amounted to 24 nM.
For `FCCOCCOCCOC1CCN(c2ccc(-c3nc4ccccc4s3)cn2)CC1` [Compound 6], in that order: 16 nM, 0.2 and 3 nM.
As to `OCCC1CCN(c2ccc(-c3nc4ccccc4s3)cn2)CC1` [Compound 7], on 0N4R Tau fibrils, the IC50 was 7 nM and the “Selectivity for tau relative to Aβ” value is recorded as 2.1. The compound further yielded an IC50 at Aβ(1-42) amyloid fibrils of 15 nM.
In the case of `Cc1ccc(S(=O)(=O)OCCC2CCN(c3ccc(-c4nc5ccccc5s4)cn3)CC2)cc1` [Compound 8], the IC50 on 0N4R Tau fibrils was 8 nM.
Still for that read-out and setting: in the case of `FCCC1CCN(c2ccc(-c3nc4ccccc4s3)cn2)CC1` [Compound 9] it was 6 nM.
Take `NC(=O)COC1CCN(c2ccc(-c3nc4ccccc4s3)cn2)CC1` [Compound 10]: the concentration for half-maximal inhibition (IC50) on 0N4R Tau fibrils stood at 31 nM.
Still for that read-out and setting: in the case of `OCCC1CCN(c2ccc(-c3nc4ccccc4o3)cn2)CC1` [Compound 11] it was 64 nM.
The same measure, in the same setting: the same measure for `CS(=O)(=O)OCCC1CCN(c2ccc(-c3nc4ccccc4o3)cn2)CC1` [Compound 12]: 17 nM; for `FCCC1CCN(c2ccc(-c3nc4ccccc4o3)cn2)CC1` [Compound 13]: 13 nM; for `c1ccc2oc(-c3ccc(N4CCCCC4)nc3)nc2c1` [Compound 14]: 22 nM.
Same read-out and setting: in the case of `COC1CCN(c2ccc(-c3nc4ccccc4o3)cn2)CC1` [Compound 15] it was 39 nM; in that of `CC1CCN(c2ccc(-c3nc4ccccc4o3)cn2)CC1` [Compound 16], 59 nM; in that of `N#CC1CCN(c2ccc(-c3nc4ccccc4o3)cn2)CC1` [Compound 17], 73 nM.
Take `OCCC1CCN(c2ccc(-c3nc4cnccc4o3)cn2)CC1` [Compound 18]: the concentration for half-maximal inhibition (IC50) at 0N4R Tau fibrils amounted to 39 nM.
For the compound `CS(=O)(=O)OCCC1CCN(c2ccc(-c3nc4cnccc4o3)cn2)CC1` [Compound 19], the IC50 on 0N4R Tau fibrils worked out at 76 nM.
Still for that read-out and setting: in the case of `FCCC1CCN(c2ccc(-c3nc4cnccc4o3)cn2)CC1` [Compound 20] it was 60 nM.
For `COc1ccc2nc(-c3ccc(N4CCC(CCO)CC4)nc3)sc2c1` [Compound 21], on 0N4R Tau fibrils, the IC50 was 5 nM and the “Selectivity for tau relative to Aβ” value was 14. Further, the IC50 at Aβ(1-42) amyloid fibrils was 70 nM.
For `COc1ccc2nc(-c3ccc(N4CCC(CCOCCOCCOCCF)CC4)nc3)sc2c1` [Compound 22], in that order: 4 nM, 1 and 4 nM.
For `COc1ccc2nc(-c3ccc(N4CCC(OCCO)CC4)nc3)sc2c1` [Compound 23], in that order: 4 nM, 1 and 4 nM.
For `COc1ccc2nc(-c3ccc(N4CCC(CCF)CC4)nc3)sc2c1` [Compound 24], in that order: 2 nM, 0.5 and 1 nM.
Consider `COc1ccc2nc(-c3cnc(N4CCC(CCO)CC4)nc3)sc2c1` [Compound 25], for which, at 0N4R Tau fibrils, the half-maximal inhibitory concentration (IC50) was 3 nM and the “Selectivity for tau relative to Aβ” value was 22. In addition, on Aβ(1-42) amyloid fibrils, the IC50 turned out to be 65 nM.
For the compound `COc1ccc2nc(-c3cnc(N4CCC(CCOCCOCCOCCF)CC4)nc3)sc2c1` [Compound 26], the 50% inhibitory concentration (IC50) at 0N4R Tau fibrils is 5 nM; at Aβ(1-42) amyloid fibrils, 8 nM. The “Selectivity for tau relative to Aβ” value at 0N4R Tau fibrils is given as 1.6.
For `OCCC1CCN(c2ccc(-c3cc4ccccc4o3)cn2)CC1` [Compound 27], in that order: 7 nM, 34 nM and 4.9.
On the same counts, the results for `OCCC1CCN(c2ncc(-c3cc4ccccc4o3)cn2)CC1` [Compound 28] are 10 nM, 15 nM and 1.5.
On to `COS(=O)(=O)CCC1CCN(c2ncc(-c3cc4ccccc4o3)cn2)CC1` [Compound 29], for which the half-maximal inhibitory concentration (IC50) on 0N4R Tau fibrils was 32 nM.
Consider `FCCC1CCN(c2ncc(-c3cc4ccccc4o3)cn2)CC1` [Compound 30], for which the half-maximal inhibitory concentration (IC50) amounted to 12 nM on 0N4R Tau fibrils and 25 nM at Aβ(1-42) amyloid fibrils. The “Selectivity for tau relative to Aβ” value on 0N4R Tau fibrils is listed as 2.1.
On to `OCCOC1CCN(c2ncc(-c3cc4ccccc4o3)cn2)CC1` [Compound 31], for which the IC50 at 0N4R Tau fibrils is 15 nM.
In the case of `OC1CCN(c2ncc(-c3cc4ccccc4o3)cn2)CC1` [Compound 32], the values for the IC50 on 0N4R Tau fibrils and at Aβ(1-42) amyloid fibrils were 43 nM and 66 nM, respectively. Further, on 0N4R Tau fibrils, the “Selectivity for tau relative to Aβ” value was 1.5.
For `FCCOCCOCCOC1CCN(c2ncc(-c3cc4ccccc4o3)cn2)CC1` [Compound 33], in that order: 28 nM, 6 nM and 0.2.
Take `NC(=O)COC1CCN(c2ncc(-c3cc4ccccc4o3)cn2)CC1` [Compound 34]: at 0N4R Tau fibrils, the IC50 is 32 nM.
Same read-out and setting: in the case of `OCCC1CCN(c2ccc(-c3cc4ccccc4o3)nn2)CC1` [Compound 35] it was 100 nM.
Take `OCCC1CCN(c2ccc(-c3nc4ccc(OCC(O)CF)cc4s3)cn2)CC1` (stereo not shown) [Compound 37]: on 0N4R Tau fibrils, the 50% inhibitory concentration (IC50) came out at 14 nM.
The same measure, in the same setting: in the case of `NC(=O)c1ccc2nc(-c3cnc(N4CCC(CCO)CC4)nc3)sc2c1` [Compound 41] it was 10 nM.
On the same count and under the same terms, in the case of `CS(=O)(=O)OCCC1CCN(c2ncc(-c3nc4ccc(C(N)=O)cc4s3)cn2)CC1` [Compound 42] it was 15 nM; in that of `CCOC(=O)c1ccc2nc(-c3cnc(N4CCC(CCF)CC4)nc3)sc2c1` [Compound 44], 4 nM.
On the same count and under the same terms, in the case of `OCCC1CCN(c2ncc(-c3nc4ccccc4[nH]3)cn2)CC1` [Compound 49, 2-{1-[5-(1H-1,3-Benzodiazol-2-yl)pyrimidin-2-yl]piperidin-4-yl}ethan-1-ol] it was 49 nM.
For the compound `OCCC1CCN(c2ccc(-c3cc4ccccc4s3)cn2)CC1` [Compound 50, 2-{1-[5-(1-Benzothiophen-2-yl)pyridin-2-yl]piperidin-4-yl}ethan-1-ol], at 0N4R Tau fibrils, the IC50 was 4 nM.
On to `COc1ccc2[nH]c(-c3ccc(N4CCC(CCO)CC4)nc3)cc2c1` [Compound 51, 2-{1-[5-(5-Methoxy-1H-indol-2-yl)pyridin-2-yl]piperidin-4-yl}ethan-1-ol], for which the concentration for half-maximal inhibition (IC50) at 0N4R Tau fibrils was determined as 13 nM.
On the same count and under the same terms, the same measure for `OCC1CCN(c2ccc(-c3nc4ccc(O)cc4s3)cn2)CC1` [Compound 55]: 7 nM; for `CCOC(=O)c1ccc2nc(-c3cnc(N4CCC(CCO)CC4)nc3)sc2c1` [Compound 59]: 5 nM; for `O=C(NCCF)c1ccc2nc(-c3cnc(N4CCC(CCO)CC4)nc3)sc2c1` [Compound 61]: 19 nM.
Same read-out and setting: in the case of `CCOC(=O)C1CCN(c2ccc(-c3cc4ccc(OC)cc4[nH]3)c(F)n2)CC1` [Compound 63, Ethyl 1-[6-Fluoro-5-(6-methoxy-1H-indol-2-yl)pyridin-2-yl]piperidine-4-carboxylate] it was 2.3 nM.
Regarding `CNC(=O)c1ccc2cc(-c3ccc(N4CCC(CO)CC4)nc3F)[nH]c2c1` [Compound 64, 2-{2-Fluoro-6-[4-(hydroxymethyl)piperidin-1-yl]pyridin-3-yl}-N-methyl-1H-indole-6-carboxamide], at 0N4R Tau fibrils, the concentration for half-maximal inhibition (IC50) is 24 nM.
Same read-out and setting: in the case of `NC(=O)c1ccc2cc(-c3cnc(N4CCC(CF)CC4)nc3)[nH]c2c1` [Compound 70, 2-{2-[4-(Fluoromethyl)piperidin-1-yl]pyrimidin-5-yl}-1H-indole-6-carboxamide] it was 20 nM.
In the case of `OCC1CCN(c2ccc(-c3cc4cccnc4[nH]3)c(F)n2)CC1` [Compound 73, [1-(6-Fluoro-5-{1H-pyrrolo[2,3-b]pyridin-2-yl}pyridin-2-yl)piperidin-4-yl]methanol], at 0N4R Tau fibrils, the IC50 was 41 nM.
Same read-out and setting: in the case of `COc1cnc2[nH]c(-c3ccc(N4CCC(CO)CC4)nc3F)cc2c1` [Compound 74] it was 14 nM; in that of `OCC1CCN(c2ccc(-c3cc4cc(O)cnc4[nH]3)c(F)n2)CC1` [Compound 75], 14 nM.
`OCC1CCN(c2ccc(-c3cc4cc(OCCF)ccc4[nH]3)cn2)CC1` [Compound 77]: the half-inhibitory concentration (IC50) on 0N4R Tau fibrils stood at 14 nM.
